Our source for the IC50 and EC50 values is patent US11634396B2 (priority 2021, dated 2023).

The target of one assay is kOR (OPRK1) (Homo sapiens (Human), UniProt P41145). The experiment in a line: KOR β-Arrestin antagonist assay (Tango OPRK1-bla U2OS cells). In kind it is cell-based. An excerpt:
KOR β-Arrestin Agonist and Antagonist assays were preformed using the Tango™ OPRK1-bla U2OS cells from Invitrogen and purchased from ThermoFisher, catalog number K1576.

The target in the next assay is human mOR (Homo sapiens (Human), UniProt P35372). The assay is described as follows: cell-based.
The target in the next assay is human dOR (Homo sapiens (Human), UniProt P41143). The experiment in a line: cell-based. The settings on record: dOR cAMP Agonist Assay EC50, CHO Tag-lite human dOR stable cell line; forskolin.
[1] abbreviates: CHO Tag-lite human mOR stable cell line, forskolin 4 μM and DAMGO at EC90, read-out: mOR cAMP Antagonist Assay IC50.

Like-named read-outs stand apart in the source and are kept apart here. Where only a bound is given, the exact number is not on record here.

Chain of human mOR (P35372 whole entry): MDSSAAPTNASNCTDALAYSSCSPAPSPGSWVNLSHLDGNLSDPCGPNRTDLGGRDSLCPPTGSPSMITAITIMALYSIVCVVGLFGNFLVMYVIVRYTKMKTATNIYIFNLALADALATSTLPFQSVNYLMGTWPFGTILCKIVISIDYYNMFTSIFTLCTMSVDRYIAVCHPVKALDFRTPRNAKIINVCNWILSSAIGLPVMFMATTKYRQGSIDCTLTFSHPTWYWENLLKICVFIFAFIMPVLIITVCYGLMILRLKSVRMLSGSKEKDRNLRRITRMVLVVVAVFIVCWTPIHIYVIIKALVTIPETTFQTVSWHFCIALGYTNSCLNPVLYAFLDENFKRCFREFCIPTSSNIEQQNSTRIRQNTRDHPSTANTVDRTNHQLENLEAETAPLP
Chain of kOR (OPRK1) (P41145 whole entry): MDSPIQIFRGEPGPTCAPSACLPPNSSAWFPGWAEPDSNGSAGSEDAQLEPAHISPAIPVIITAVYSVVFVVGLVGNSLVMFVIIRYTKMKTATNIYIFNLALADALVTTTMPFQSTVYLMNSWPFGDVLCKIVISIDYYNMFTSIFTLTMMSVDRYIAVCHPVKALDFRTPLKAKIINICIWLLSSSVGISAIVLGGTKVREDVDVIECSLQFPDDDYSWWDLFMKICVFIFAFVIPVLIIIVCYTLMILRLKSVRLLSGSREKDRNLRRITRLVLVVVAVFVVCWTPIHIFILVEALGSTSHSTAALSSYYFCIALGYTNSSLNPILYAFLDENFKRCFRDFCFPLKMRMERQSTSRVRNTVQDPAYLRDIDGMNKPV
Chain of human dOR (P41143 whole entry): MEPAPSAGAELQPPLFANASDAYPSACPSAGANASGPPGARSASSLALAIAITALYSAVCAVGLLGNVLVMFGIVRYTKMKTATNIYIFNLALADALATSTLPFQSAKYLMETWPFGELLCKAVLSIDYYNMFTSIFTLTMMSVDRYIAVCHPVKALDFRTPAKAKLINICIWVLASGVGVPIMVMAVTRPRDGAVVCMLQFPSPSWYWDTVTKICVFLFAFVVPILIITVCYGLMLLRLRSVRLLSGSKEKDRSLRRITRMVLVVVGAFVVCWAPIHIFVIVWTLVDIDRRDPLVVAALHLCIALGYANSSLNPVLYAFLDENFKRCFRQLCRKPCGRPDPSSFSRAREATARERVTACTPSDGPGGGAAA

Regarding `CN(C)[C@H](CNC(=O)C[C@H](c1ccccc1)C1(C(F)(F)F)CC1)Cc1ccc(C(N)=O)cc1Cl` [Compound 39, 3-chloro-4-[(2S)-2-(dimethylamino)-3-[(3R)-3-phenyl-3-[1-(trifluoromethyl)cyclopropyl]propanamido]propyl]benzamide], the IC50 on kOR (OPRK1) and on human mOR was below 300 nM each time. Besides, the EC50 on human dOR is above 3000 nM.

As for `Cc1ncc([C@@H](CC(=O)NC[C@H](Cc2ccc(C(N)=O)c(F)c2)N(C)C)C2(C(F)(F)F)CC2)cn1` [Compound 68, 4-((S)-2-(dimethylamino)-3-((R)-3-(2-methylpyrimidin-5-yl)-3-(1-(trifluoromethyl)cyclopropyl)propanamido)propyl)-2-fluorobenzamide], the IC50 on kOR (OPRK1) and on human mOR was below 300 nM throughout. In addition, at human dOR, the EC50 is above 3000 nM.

Turning to `CN(C)[C@H](CNC(=O)C[C@H](c1ccccc1)C1(C(F)(F)F)CC1)Cc1ccc(C(N)=O)c(F)c1` [Compound 77, 4-((S)-2-(dimethylamino)-3-((R)-3-phenyl-3-(1-(trifluoromethyl)cyclopropyl)propanamido)propyl)-2-fluorobenzamide], the IC50 at kOR (OPRK1) and on human mOR was below 300 nM each time. The half-maximal effective concentration (EC50) at human dOR was above 3000 nM.

Regarding `CN(C)[C@H](CNC(=O)C[C@H](c1ccc(Cl)c(Cl)c1)C1(C(F)(F)F)CC1)Cc1ccc(C(N)=O)cc1` [Compound 80, 4-((S)-3-((R)-3-(3,4-dichlorophenyl)-3-(1-(trifluoromethyl)cyclopropyl)propanamido)-2-(dimethylamino)propyl)benzamide], the IC50 against kOR (OPRK1) and at human mOR was below 300 nM each time. Also, on human dOR, the EC50 is below 300 nM.

In the case of `CN(C)[C@H](CNC(=O)C[C@@H](c1ccccc1)C1(C(F)(F)F)CC1)Cc1ccc(C(N)=O)cc1` [Compound 88, 4-[(2S)-2-(dimethylamino)-3-[(3S)-3-phenyl-3-[1-(trifluoromethyl)cyclopropyl]propanamido]propyl]benzamide], the IC50 against kOR (OPRK1) and at human mOR was below 300 nM throughout. In addition, the EC50 on human dOR is below 300 nM.

Regarding `CN(C)[C@H](CNC(=O)C[C@H](c1ccccc1)C1(C(F)(F)F)CC1)Cc1ccc(C(N)=O)cc1` [Compound 89, 4-[(2S)-2-(dimethylamino)-3-[(3R)-3-phenyl-3-[1-(trifluoromethyl)cyclopropyl]propanamido]propyl]benzamide], the IC50 against kOR (OPRK1) and at human mOR was below 300 nM throughout. Moreover, the 50% effective concentration (EC50) at human dOR is below 300 nM.

`CN(C)[C@H](CNC(=O)C[C@H](CC1CCC1)c1ccccc1)Cc1ccc(C(N)=O)cc1` [Compound 90, 4-[(2S)-3-[(3S)-4-cyclobutyl-3-phenylbutanamido]-2-(dimethylamino)propyl]benzamide]: the 50% inhibitory concentration (IC50) against kOR (OPRK1) and at human mOR was below 300 nM in each case. Besides, the EC50 on human dOR is below 300 nM.

On to `CC(C)C[C@@H](CC(=O)NC[C@H](Cc1ccc(C(N)=O)cc1)N(C)C)c1ccccc1` [Compound 91, 4-[(2S)-2-(dimethylamino)-3-[(3S)-5-methyl-3-phenylhexanamido]propyl]benzamide], for which the IC50 against kOR (OPRK1) and at human mOR was below 300 nM each time. Also, the EC50 on human dOR was below 300 nM.

Take `CC(C)C[C@H](CC(=O)NC[C@H](Cc1ccc(C(N)=O)cc1)N(C)C)c1ccccc1` [Compound 96, 4-((S)-2-(dimethylamino)-3-((R)-5-methyl-3-phenylhexanamido)propyl)benzamide]: the IC50 on kOR (OPRK1) and at human mOR was below 300 nM throughout. Further, on human dOR, the EC50 was below 300 nM.

As for `CN(C)[C@H](CNC(=O)C[C@@H](c1ccccc1)C1CC1)Cc1ccc(C(N)=O)cc1` [Compound 97, 4-((S)-3-((R)-3-cyclopropyl-3-phenylpropanamido)-2-(dimethylamino)propyl)benzamide], the IC50 against kOR (OPRK1) and on human mOR was below 300 nM in each case. The EC50 at human dOR is below 300 nM.

Regarding `CNC(=O)c1ccc(C[C@@H](CNC(=O)C[C@H](c2cc(F)cc(F)c2)C2(C(F)(F)F)CC2)N(C)C)c(C)c1` [Compound 136, 4-((S)-3-((R)-3-(3,5-difluorophenyl)-3-(1-(trifluoromethyl)cyclopropyl)propanamido)-2-(dimethylamino)propyl)-N,3-dimethylbenzamide], the IC50 against kOR (OPRK1) and at human mOR was below 300 nM each time. The EC50 at human dOR lay within 300 to 3000 nM.

As for `CNC(=O)c1ccc(C[C@@H](CNC(=O)C[C@H](c2ccc(Cl)cc2)C2(C(F)(F)F)CC2)N(C)C)c(C)c1` [Compound 142, 4-((S)-3-((R)-3-(4-chlorophenyl)-3-(1-(trifluoromethyl)cyclopropyl)propanamido)-2-(dimethylamino)propyl)-N,3-dimethylbenzamide], the IC50 at kOR (OPRK1) and on human mOR was below 300 nM each time. Besides, the EC50 at human dOR was above 3000 nM.

Consider `CNC(=O)c1ccc(C[C@@H](CNC(=O)C[C@H](c2ccccc2)C2(C(F)(F)F)CC2)N(C)C)c(C)c1` [Compound 143, 4-((S)-2-(dimethylamino)-3-((R)-3-phenyl-3-(1-(trifluoromethyl)cyclopropyl)propanamido)propyl)-N,3-dimethylbenzamide], for which the IC50 at kOR (OPRK1) and on human mOR was below 300 nM throughout. For the same compound, at human dOR, the EC50 was above 3000 nM.

Take `CN(C)[C@H](CNC(=O)C[C@@H](c1ccccc1)C1CC1)Cc1ccc2[nH]ncc2c1` [Compound 226, (3R)-3-cyclopropyl-N-[(2S)-2-(dimethylamino)-3-(1H-indazol-5-yl)propyl]-3-phenylpropanamide]: the IC50 on kOR (OPRK1) and at human mOR (setting [1]) was below 300 nM throughout. In addition, on human dOR, the EC50 lay in the range of 300 to 3000 nM.

Turning to `CN(C)[C@H](CNC(=O)C[C@H](c1ccccc1)C1CC1)Cc1ccc2[nH]ncc2c1` [Compound 227, (3S)-3-cyclopropyl-N-[(2S)-2-(dimethylamino)-3-(1H-indazol-5-yl)propyl]-3-phenylpropanamide], the IC50 is 300 to 3000 nM against kOR (OPRK1) and below 300 nM on human mOR (setting [1]). Besides, the 50% effective concentration (EC50) on human dOR fell in the range of 300 to 3000 nM.

Consider `Cc1cc(O)cc(C)c1C[C@@H](CNC(=O)C[C@H](c1ccccc1)C1CC1)N(C)C` [Compound 251, (S)-3-cyclopropyl-N-((S)-2-(dimethylamino)-3-(4-hydroxy-2,6-dimethylphenyl)propyl)-3-phenylpropanamide], for which the IC50 against kOR (OPRK1) and on human mOR (setting [1]) was below 300 nM throughout. For the same compound, the EC50 on human dOR was above 3000 nM.

As for `CN(C)[C@H](CNC(=O)C[C@@H](c1ccccc1)C1CC1)Cc1ccc(O)cc1` [Compound 318, (R)-3-cyclopropyl-N-((S)-2-(dimethylamino)-3-(4-hydroxyphenyl)propyl)-3-phenylpropanamide], the IC50 on kOR (OPRK1) and on human mOR was below 300 nM each time. For the same compound, on human dOR, the EC50 was below 300 nM.

As for `CN(C)[C@H](CNC(=O)C[C@H](c1ccccc1)C1CC1)Cc1ccc(O)cc1` [Compound 319, (S)-3-cyclopropyl-N-((S)-2-(dimethylamino)-3-(4-hydroxyphenyl)propyl)-3-phenylpropanamide], the 50% inhibitory concentration (IC50) against kOR (OPRK1) was below 300 nM; at human mOR (setting [1]) it was above 3000 nM. The half-maximal effective concentration (EC50) on human dOR is below 300 nM.
